# Data taken from patent US20250179047A1, “5-[7-(3,4-DIHYDRO-1H-ISOQUINOLINE-2-CARBONYL)-1,2,3,4 TETRAHYDROISOQUINOLIN-6-YL]-1H-PYRROLE-3-CARBOXAMIDE DERIVATIVES, PHARMACEUTICAL COMPOSITIONS CONTAINING THEM AND THEIR USES AS PRO-APOPTOTIC AGENTS” (LES LABORATOIRES SERVIER, priority 2022, published 2025).
# Columns and labels:
# [1] = tested on: BCL2 G101V; test: TR-FRET competitive binding assay, BCL2 G101V; design: species or system human; conditions: ratio Ki BCL2 G101V / Ki BCL2 WT
# How it was run: (§1)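 Terbium-labelled N-terminal Halo-fusion BCL2 or BCLXL (E. coli), 0.5 nM, competed against fluorescein-labelled PUMA peptide (2 or 20 nM) for 2 h at 23° C in 50 mM Hepes pH 7.5, 150 mM NaCl, 5% DMSO. TR-FRET 520/495 nm ratio gave IC50 by four-parameter fit; Ki derived from IC50.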
# [2] = molecular target: BCL2 G101V (Homo sapiens, UniProt P10415, G101V); test: TR-FRET competitive binding assay, BCL2 G101V; conditions: BCL2 G101V; Ki determined from IC50; read-out: TR_FRET EKI_Bcl2 G101V
# How it was run: as §1
# [3] = molecular target: BCLXL WT (Homo sapiens (Human), UniProt Q07817); test: TR-FRET competitive binding assay, BCLXL WT; conditions: for Ki: BCLXL WT, Ki determined from IC50, read-out: TR_FRET EKI BclxL; for TR_FRET EKI BCLxL/WT selectivty ratio: ratio Ki BCLxL / Ki BCL2 WT
# Chain of BCLXL WT (Q07817 other isoform, or with tags, fused parts or gaps): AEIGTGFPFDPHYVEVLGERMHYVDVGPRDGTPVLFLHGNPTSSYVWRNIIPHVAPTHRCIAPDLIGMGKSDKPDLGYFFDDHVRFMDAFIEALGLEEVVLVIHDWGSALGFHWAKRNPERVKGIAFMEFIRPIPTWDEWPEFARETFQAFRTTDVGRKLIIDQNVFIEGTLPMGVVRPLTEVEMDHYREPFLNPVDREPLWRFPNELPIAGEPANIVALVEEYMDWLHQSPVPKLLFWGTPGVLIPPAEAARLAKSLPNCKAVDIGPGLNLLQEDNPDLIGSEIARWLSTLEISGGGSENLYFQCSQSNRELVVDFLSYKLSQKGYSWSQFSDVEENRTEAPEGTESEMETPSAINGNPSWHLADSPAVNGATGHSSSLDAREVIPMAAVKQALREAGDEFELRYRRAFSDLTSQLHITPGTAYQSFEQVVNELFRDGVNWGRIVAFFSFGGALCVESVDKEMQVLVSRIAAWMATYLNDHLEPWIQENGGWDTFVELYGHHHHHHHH
# How it was run: as §1
# [4] = molecular target: BCL2 D103Y (Homo sapiens, UniProt P10415, D103Y); test: TR-FRET competitive binding assay, BCL2 D103Y; conditions: Ki determined from IC50, read-out: TR_FRET EKI_Bcl2 D103Y
# How it was run: as §1
# [5] = molecular target: BCL2 WT (Homo sapiens (Human), UniProt P10415); test: TR-FRET competitive binding assay, BCL2 WT; conditions: Ki determined from IC50, read-out: TR_FRET EKI_Bcl2 WT
# How it was run: as §1
# [6] = tested on: KMS-12-PE Bcl-2 G101V; test: In vitro cytotoxicity CellTiter-Glo 48 h, KMS-12-PE Bcl-2 G101V; type: cell-based; conditions: for Ratio (G101V/WT): C50 KMS-12-PE Bcl-2 G101V over C50 KMS-12-PE Bcl-2 WT; for IC50: Homo sapiens, KMS-12-PE, 48 h, CellTiter-Glo, C50 = concentration needed to reach 50% of the cellular viability
# How it was run: (§2)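 Transduce KMS-12-PE with Bcl-2 WT or G101V lentivirus, then FACS-sort RFP-positive cells. Add compounds in an 11-point dilution series and incubate 48 h at 37 °C. Measure ATP-based luminescence with CellTiter-Glo and derive C50 (50% viability).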
# [7] = molecular target: BCL2 D111A (Homo sapiens, UniProt P10415, D111A); test: TR-FRET competitive binding assay, BCL2 D111A; conditions: Ki determined from IC50, read-out: TR_FRET EKI_Bcl2 D111A
# How it was run: as §1
# [8] = tested on: KMS-12-PE Bcl-2 WT; test: In vitro cytotoxicity CellTiter-Glo 48 h, KMS-12-PE Bcl-2 WT; type: cell-based; conditions: Homo sapiens, KMS-12-PE, C50 = concentration needed to reach 50% of the cellular viability
# How it was run: as §2
# [9] = molecular target: BCL2 F104I (Homo sapiens, UniProt P10415, F104I); test: TR-FRET competitive binding assay, BCL2 F104I; conditions: Ki determined from IC50, read-out: TR_FRET EKI_Bcl2 F104I
# How it was run: as §1
SMILES,TR_FRET EKI G101V/WT selectivty ratio [1],Ki [2] [nM],Ki [3] [nM],TR_FRET EKI BCLxL/WT selectivty ratio [3],Ki [4] [nM],Ki [5] [nM],Ratio (G101V/WT) [6],IC50 [6] [µM],Ki [7] [nM],IC50 [8] [µM],Ki [9] [nM]
"Cc1c(N(C(=O)c2cc(-c3cc4c(cc3C(=O)N3Cc5ccccc5C[C@H]3CCN3CCCCC3)CN(C(=O)Cc3ccc(OCCN5CCOCC5)cc3F)CC4)n(C)c2C)c2ccc(O)cc2)cc(C#N)n1C [Example 74, N-(5-cyano-1,2-dimethyl-1H-pyrrol-3-yl)-5-[2-(2-{2-fluoro-4-[2-(morpholin-4-yl)ethoxy]phenyl}acetyl)-7-[(3S)-3-[2-(piperidin-1-yl)ethyl]-1,2,3,4-tetrahydroisoquinoline-2-carbonyl]-1,2,3,4-tetrahydroisoquinolin-6-yl]-N-(4-hydroxyphenyl)-1,2-dimethyl-1H-pyrrole-3-carboxamide]",2.8,0.1,1.1,52.4,0.07,0.02,2.36,0.0885,0.09,0.0375,0.04
"COc1ccc(N(C(=O)c2cc(-c3cc4c(cc3C(=O)N3Cc5ccccc5C[C@H]3C)CN(C(=O)Cc3ccc(OCCN5CCOCC5)cc3)CC4)n(C)c2C)c2ccc(O)cc2)cc1C#N [Example 81, N-(3-cyano-4-methoxyphenyl)-N-(4-hydroxyphenyl)-1,2-dimethyl-5-(7-{[(3R)-3-methyl-3,4-dihydro-1H-isoquinolin-2-yl]carbonyl}-2-(2-{4-[2-(morpholin-4-yl)ethoxy]phenyl}acetyl)-3,4-dihydro-1H-isoquinolin-6-yl)pyrrole-3-carboxamide]",2.9,0.6,5.3,27.9,0.46,0.19,5.6429,0.0395,0.4,0.007,0.52
"Cc1c(N(C(=O)c2cc(-c3cc4c(cc3C(=O)N3Cc5ccccc5C[C@H]3CN3CCC(F)CC3)CN(C(=O)Cc3ccc(OCCN5CCOCC5)cc3F)CC4)n(C)c2C)c2ccc(O)cc2)cc(C#N)n1C [Example 86, N-(5-cyano-1,2-dimethyl-1H-pyrrol-3-yl)-5-[2-(2-{2-fluoro-4-[2-(morpholin-4-yl)ethoxy]phenyl}acetyl)-7-[(3S)-3-[(4-fluoropiperidin-1-yl)methyl]-1,2,3,4-tetrahydroisoquinoline-2-carbonyl]-1,2,3,4-tetrahydroisoquinolin-6-yl]-N-(4-hydroxyphenyl)-1,2-dimethyl-1H-pyrrole-3-carboxamide]",3.9,0.5,1.6,12.3,0.42,0.13,5.21,0.0249,0.23,0.0048,0.37
"Cc1c(N(C(=O)c2cc(-c3cc4c(cc3C(=O)N3Cc5ccccc5C[C@H]3CN3CCCCC3)CN(C(=O)Cc3ccc(O[C@H]5CCN(CCF)C5)cc3F)CC4)n(C)c2C)c2ccc(O)cc2)cc(C#N)n1C [Example 89, N-(5-cyano-1,2-dimethylpyrrol-3-yl)-5-{2-[2-(2-fluoro-4-{[(3S)-1-(2-fluoroethyl)pyrrolidin-3-yl]oxy}phenyl)acetyl]-7-{[(3S)-3-(piperidin-1-ylmethyl)-3,4-dihydro-1H-isoquinolin-2-yl]carbonyl}-3,4-dihydro-1H-isoquinolin-6-yl}-N-(4-hydroxyphenyl)-1,2-dimethylpyrrole-3-carboxamide]",4.3,0.3,1.9,29.2,0.18,0.07,5.17,0.0358,0.26,0.0069,0.43
"Cc1c(N(C(=O)c2cc(-c3cc4c(cc3C(=O)N3Cc5ccccc5C[C@H]3CN3CCCCCC3)CN(C(=O)Cc3ccc(OCCN5CCOCC5)cc3F)CC4)n(C)c2C)c2ccc(O)cc2)cc(C#N)n1C [Example 96, 5-{7-[(3S)-3-[(azepan-1-yl)methyl]-1,2,3,4-tetrahydroisoquinoline-2-carbonyl]-2-(2-{2-fluoro-4-[2-(morpholin-4-yl)ethoxy]phenyl}acetyl)-1,2,3,4-tetrahydroisoquinolin-6-yl}-N-(5-cyano-1,2-dimethyl-1H-pyrrol-3-yl)-N-(4-hydroxyphenyl)-1,2-dimethyl-1H-pyrrole-3-carboxamide]",5.6,0.4,2.4,37.5,0.2,0.06,5.15,0.0291,0.2,0.0056,0.2
"Cc1c(N(C(=O)c2cc(-c3cc4c(cc3C(=O)N3Cc5ccccc5C[C@H]3CN3CCCCC3)CN(C(=O)Cc3c(F)cc(OCCN5CCOCC5)cc3F)CC4)n(C)c2C)c2ccc(O)cc2)cc(C#N)n1C [Example 97, N-(5-cyano-1,2-dimethylpyrrol-3-yl)-5-[2-(2-{2,6-difluoro-4-[2-(morpholin-4-yl)ethoxy]phenyl}acetyl)-7-{[(3S)-3-(piperidin-1-ylmethyl)-3,4-dihydro-1H-isoquinolin-2-yl]carbonyl}-3,4-dihydro-1H-isoquinolin-6-yl]-N-(4-hydroxyphenyl)-1,2-dimethylpyrrole-3-carboxamide]",4.3,0.2,1.9,41.3,0.18,0.05,4.68,0.0158,0.14,0.0033,0.16
"Cc1c(N(C(=O)c2cc(-c3cc4c(cc3C(=O)N3Cc5ccccc5C[C@H]3CN3CCCCC3)CN(C(=O)Cc3ccc(OCCN5C[C@@H](C)O[C@@H](C)C5)cc3)CC4)n(C)c2C)c2ccc(O)cc2)cc(C#N)n1C [Example 98, N-(5-cyano-1,2-dimethylpyrrol-3-yl)-5-{2-[2-(4-{2-[cis-2,6-dimethylmorpholin-4-yl]ethoxy}phenyl)acetyl]-7-{[(3S)-3-(piperidin-1-ylmethyl)-3,4-dihydro-1H-isoquinolin-2-yl]carbonyl}-3,4-dihydro-1H-isoquinolin-6-yl}-N-(4-hydroxyphenyl)-1,2-dimethylpyrrole-3-carboxamide]",4.9,0.4,4.7,66.2,0.24,0.07,4.6,0.0401,0.25,0.0087,0.6
"Cc1c(N(C(=O)c2cc(-c3cc4c(cc3C(=O)N3Cc5ccccc5C[C@H]3CN3CCCCC3)CN(C(=O)Cc3ccc(OCCN(C)C5CC5)cc3)CC4)n(C)c2C)c2ccc(O)cc2)cc(C#N)n1C [Example 102, N-(5-cyano-1,2-dimethyl-1H-pyrrol-3-yl)-5-{2-[2-(4-{2-[cyclopropyl(methyl)amino]ethoxy}phenyl)acetyl]-7-[(3S)-3-[(piperidin-1-yl)methyl]-1,2,3,4-tetrahydroisoquinoline-2-carbonyl]-1,2,3,4-tetrahydroisoquinolin-6-yl}-N-(4-hydroxyphenyl)-1,2-dimethyl-1H-pyrrole-3-carboxamide]",6.5,0.4,2.8,49.1,0.21,0.06,6.03,0.0424,0.24,0.0075,0.73
"Cc1c(N(C(=O)c2cc(-c3cc4c(cc3C(=O)N3Cc5ccccc5C[C@H]3CN3CCCCC3)CN(C(=O)Cc3ccc(OCCN(C)C5COC5)cc3F)CC4)n(C)c2C)c2ccc(O)cc2)cc(C#N)n1C [Example 105, N-(5-cyano-1,2-dimethyl-1H-pyrrol-3-yl)-5-{2-[2-(2-fluoro-4-{2-[methyl(oxetan-3-yl)amino]ethoxy}phenyl)acetyl]-7-[(3S)-3-[(piperidin-1-yl)methyl]-1,2,3,4-tetrahydroisoquinoline-2-carbonyl]-1,2,3,4-tetrahydroisoquinolin-6-yl}-N-(4-hydroxyphenyl)-1,2-dimethyl-1H-pyrrole-3-carboxamide]",4.3,0.2,1.6,32.7,0.11,0.05,5.28,0.0285,0.12,0.0054,0.22
